Laboratory results published in publication PMC9181938, “Fluorinated Analogues of Lepidilines A and C: Synthesis and Screening of Their Anticancer and Antiviral Activity” (Molecules, 2022).
Where two headings read alike, the source gives them in different places.

Columns and labels:
[1] = tested on: Human herpesvirus 5 (HCMV); assay: Antiviral screening at 10 µM, plaque reduction; assay type: cell-based; settings: Human betaherpesvirus 5, antiviral screening, HCMV-infected cells, read-out: Cell line (viability %) HCMV
Experimental: (§1) Antiviral properties of compounds 1a, 1c, 1a[PF6], 1c[PF6], 9b[PF6], 9c[PF6], 10a–10d, 2a, and 2b were assessed against five viruses: Human herpesvirus 1 (HSV-1, VR-539), Human parainfluenza virus type 3 (HPIV-3, VR-93), Human adenovirus 5 (AdV5, VR-5), Human herpesvirus 5 (HCMV, VR-977), and Encephalomyocarditis virus (EMCV, VR-1479). Viruses were purchased from the American Type Culture Collection (ATCC, Manassas, VA, USA).
(§2) All tested compounds were dissolved in DMSO (dimethyl sulfoxide, Sigma-Aldrich, Darmstadt, Germany) and then suspended in Minimum Essential Medium (MEM; Sigma-Aldrich, Darmstadt, Germany) supplemented with 2% heat-inactivated fetal bovine serum (FBS; Sigma-Aldrich, Darmstadt, Germany), 2 mM L-glutamine (Sigma-Aldrich, Darmstadt, Germany), and 100 units/mL penicillin G with […] streptomycin (Sigma-Aldrich, Darmstadt, Germany).
(§3) Vero, LLC-MK2, NCTC clone 929, MRC-5, and HeLa cells were propagated in Minimum Essential Medium (MEM; Sigma-Aldrich, Darmstadt, Germany) supplemented with 10% heat-inactivated fetal bovine serum (FBS; Sigma-Aldrich, Darmstadt, Germany) and 100 units/mL penicillin G with […] streptomycin (Sigma-Aldrich, Darmstadt, Germany). Upon reaching 80–90% confluency, cells were harvested with 0.25% trypsin in 1 mM EDTA (Life Technologies, Warsaw, Poland) and seeded onto 96-well microplates at 2 × 10^5 cells/mL. After overnight incubation of cells at 37 °C in a humidified atmosphere containing 5% CO2, the culture medium was removed, and cells were inoculated with the respective virus solution in MEM supplemented with 2% FBS and antibiotics (HSV-1 MOI 0.005, 1000 virions/mL; HPIV-3 MOI 0.01, 2000 virions/mL; AdV5 MOI 0.005, 1000 virions/mL, EMCV MOI 0.005, 1000 virions/mL, HCMV 20 PFU (plaque forming units) per well). After a 1-h (HSV-1, HPIV-3, AdV5, and EMCV) or 2-h adsorption period (HCMV), the residual virus was removed, and the infected cells were further incubated with a 100 μL freshly prepared solution of tested compounds diluted with a maintenance medium supplemented with 2% FBS to obtain compound concentrations of 10 µM. The final concentration of DMSO in the medium was 0.1%. All experiments were carried out in triplicate. The cells monolayers were incubated with the compounds at 37 °C in a humidified atmosphere containing 5% CO2 until the typical cytopathic effect (CPE) was visible. Viral infection was evaluated by the MTT assay or plaque reduction assay (HCMV). After incubation with drugs, the cells were treated with 3-(4,5-dimethylthiazol-2-yl)-2,5-diphenyltetrazolium bromide dye solution (MTT, Sigma-Aldrich, Darmstadt, Germany) (25 μL, 5 mg/mL) for 2 h and lysed with solvent solution (100 μL) containing: DMF (Sigma-Aldrich, Darmstadt, Germany) (45 mL), SDS (Sigma-Aldrich, Darmstadt, Germany) (13.5 g), and distilled water (55 mL). After overnight incubation at 37 °C, the optical density at 550 nm and a reference wavelength of 670 nm were measured on a microplate spectrophotometer, Varioskan Lux (Thermo Fisher Scientific, Waltham, MA, USA). The number of HCMV plaques was counted under an inverted microscope Olympus IX73 (Olympus, Tokyo, Japan).

[2] = Cytotoxicity screening at 10 µM (MTT); assay type: cell-based, Cercopithecus aethiops; settings: Cercopithecus aethiops, Vero cells, read-out: Cell line (viability %) Vero
[3] = tested on: Human adenovirus 5 (AdV5); assay: Antiviral screening at 10 µM; assay type: cell-based; settings: Human mastadenovirus C, AdV5-infected cells, read-out: Cell line (viability %) AdV5
Experimental: as §1, §2, §3

[4] = tested on: Human parainfluenza virus type 3 (HPIV-3); assay: Antiviral screening at 10 µM; assay type: cell-based; settings: Human respirovirus 3, antiviral screening, HPIV-3-infected cells, read-out: Cell line (viability %) HPIV-3
Experimental: as §1, §2, §3

[5] = tested on: Encephalomyocarditis virus (EMCV); assay: Antiviral screening at 10 µM; assay type: cell-based; settings: Cardiovirus A, EMCV-infected cells, read-out: Cell line (viability %) EMCV
Experimental: as §1, §2, §3

[6] = tested on: Human herpesvirus 1 (HSV-1); assay: Antiviral screening at 10 µM; assay type: cell-based; settings: Human alphaherpesvirus 1, antiviral screening, HSV-1-infected cells, read-out: Cell line (viability %) HSV-1
Experimental: as §1, §2, §3

[7] = Cytotoxicity screening at 10 µM (MTT); assay type: cell-based, Mus musculus; settings: Mus musculus, NCTC clone 929 cells, read-out: Cell line (viability %) NCTC clone 929
[8] = Cytotoxicity screening at 10 µM (MTT); assay type: cell-based, Macaca mulatta; settings: Macaca mulatta, LLC-MK2 cells, read-out: Cell line (viability %) LLC-MK2
[9] = Cytotoxicity screening at 10 µM (MTT); assay type: cell-based, Human; settings: human, MRC-5 cells, read-out: Cell line (viability %) MRC-5
[10] = Cytotoxicity screening at 10 µM (MTT); assay type: cell-based, Human; settings: human, HeLa cells, read-out: Cell line (viability %) HeLa
[11] = tested on: Human adenovirus 5 (AdV5); assay: Antiviral activity assay (0.1–1000 µM), IC50; assay type: cell-based; settings: Human mastadenovirus C; Table S4, range 0.1-1000 µM, AdV5; read-out: IC50 (M) AdV5
Experimental: as §1, with “1e–1g, 1e[PF6], 8a–8d,” for “1a, 1c, 1a[PF6], 1c[PF6], 9b[PF6], 9c[PF6], 10a–10d, 2a,”, “9a” for “2b”
as §2
Investigated cells were propagated in Minimum Essential Medium (MEM; Sigma-Aldrich, Darmstadt, Germany) supplemented with 10% heat-inactivated fetal bovine serum (FBS; Sigma-Aldrich, Darmstadt, Germany) and 100 units/mL penicillin G with […] streptomycin (Sigma-Aldrich, Darmstadt, Germany). After reaching 80–90% confluency, cells were harvested with trypsin (Life Technologies, Warsaw, Poland) and seeded into 96-well microplates at 2 × 10^5 cells/mL after overnight incubation of cells at 37 °C in a humidified atmosphere containing 5% CO2.
The culture medium was removed from confluent cells grown in 96-well microplates, and the cells were inoculated with virus solutions in MEM supplemented with 2% FBS and antibiotics (HSV-1 MOI 0.005, 1000 virions/mL; HPIV-3 MOI 0.01, 2000 virions/mL; AdV5 MOI 0.005, 1000 virions/mL; EMCV 0.005, 1000 virions/mL; HCMV 20 PFU/well (plaque-forming units per well). After a 1-h (HSV-1, HPIV-3, AdV5, and EMCV) or 2-h adsorption period (HCMV), residual viral particles were removed, and infected cells were further incubated with MEM supplemented with 2% FBS containing compound concentrations in the range from 0.1 to 1000 µM [38]. All experiments were carried out in triplicate. The cell monolayers were incubated with the investigated compounds at 37 °C in a humidified atmosphere containing 5% CO2 until a cytopathic effect (CPE) was visible. Viral infection was evaluated by the MTT assay (as described previously) or plaque reduction assay. HCMV plaques were counted under an inverted microscope, Olympus IX73 (Olympus, Tokyo, Japan). Antiviral activity was expressed as the concentration required to reduce the number of viral plaques to 50% of the control (virus-infected but untreated).

[12] = Cytotoxicity MTT assay (0.1–1000 µM), CC50; assay type: cell-based, Human; settings: human, HeLa cells

Structure (SMILES)	viability at 10 µM [1] [%]	viability at 48 h, 10 µM [2] [%]	viability at 10 µM [3] [%]	viability at 10 µM [4] [%]	viability at 10 µM [5] [%]	viability at 10 µM [6] [%]	viability at 48 h, 10 µM [7] [%]	viability at 48 h, 10 µM [8] [%]	viability at 48 h, 10 µM [9] [%]	viability at 48 h, 10 µM [10] [%]	IC50 [11] [M]	CC50 at 48 h ([12]; MTT, 48 h, read-out: CC50 Cancer Cell Lines HeLa) [µM]	CC50 at 48 h ([12]; Table S2, range 0.1-1000 µM, read-out: Cell line (CC50 M) HeLa) [µM]
c1c[n+](OC23CC4CC(CC(C4)C2)C3)cn1OC12CC3CC(CC(C3)C1)C2 [Compound 2b]	2.8	15.2	17.1	8.7	9.6	14.1	6.6	7.8	12.7	7.5			
COc1cccc(Cn2c(C)c(C)n(Cc3ccccc3)c2=S)c1 [Compound 10b]	1.9	29.1	39.5	7.9	8.1	16.5	59	9.1	100	13.3			
c1c[n+](C23CC4CC(CC(C4)C2)C3)cn1C12CC3CC(CC(C3)C1)C2 [Compound 2a, 1,3-diadamantyl imidazolium bromide, reference compound]	9.7	7.9	50.2	8.3	7.1	13.9	8.9	7.8	73.7	23			
COc1cccc(Cn2c(-c3ccccc3)c(-c3ccccc3)n(Cc3ccccc3)c2=S)c1 [Compound 10d]	1.9	95.8	68	10.6	8.5	14.6	91.5	53.6	96.8	74	> 0.000318	< 400	318 ± 47.5
